# Results: patent US20210308289A1, “INACTIVATION OF HIGHLY RESISTANT INFECTIOUS MICROBES AND PROTEINS WITH UNBUFFERED HYPOHALOUS ACID COMPOSITIONS” (BRIOTECH, INC., priority 2016, published 2021)
# Experiments:
# infectious proteins = assay type: biochemical
# [1] = Application to human skin and mucous membranes; conditions: freshly prepared from HOCl containing 200 ppm of Cl
# [2] = in solution; cited from earlier work
# [3] = tested on: spores of Bacillus subtilis; assay: Inactivation of Bacillus subtilis spores by HOBr and HOCl; assay type: cell-based
Compound,inactivation of infectious proteins (infectious proteins),adverse effects on epithelial surfaces [1],pKa [2],"LRV ([3]; HOBr approximately 25 ppm, 20 seconds)","effect on Bacillus spores ([3]; HOCl 25 ppm, 20 seconds of contact)","LRV ([3]; HOCl 230 ppm, 20 seconds)","LRVs ([3]; HOCl below 230 ppm, 20 seconds)"
"OBr [HOBr, hypobromous acid]",comparable levels to those achieved using HOCl,without any indication of adverse effects,higher than HOCl,6,,,
"OCl [HOCl, hypochlorous acid]",,,about 7.5,,no detectable effect,6,2-4
